Measurements as given in patent US20260159497A1, “SOLID FORMS OF A COMPLEMENT FACTOR B INHIBITOR” (Novartis Pharma AG, priority 2022, published 2026).
Read-outs that look alike come from different tables or passages of the source.

Test: Pharmacokinetic study after oral dosing, rat
Assay type: in vivo, SD Rat
Details: for Cmax / AUC(0-t) / concentration at 24 h: male, SD (Sprague-Dawley), rat, in vivo, po, oral, suspension in 0.5% methocel + 0.1% tween 80 in water, SD Rat male, Fed, 5 mL/kg; for AUC(0-t): read-out: AUC0-24 h; for concentration at 24 h: read-out: C24 h
Description: The pharmacokinetic profile of (S)-4-(2,2-difluoro-7-((5-methoxy-7-methyl-1H-indol-4-yl)methyl)-7-azaspiro[3.5]nonan-6-yl)benzoic acid was assessed in rats, dogs or non-human primates (NHPs) as the amorphous compound as a solution in 20% kleptose in water and as a suspension of Form A in 0.5% methocel+0.1% tween 80 in water.
Amorphous (S)-4-(2,2-difluoro-7-((5-methoxy-7-methyl-1H-indol-4-yl)methyl)-7-azaspiro[3.5]nonan-6-yl)benzoic acid was weighed into a glass vial with a magnetic stir bar to give formulations at dose concentrations of 0.1-1000 mg/kg. Approx. ⅓ the final volume of 20% kleptose (hydroxypropyl β-cyclodextrin, Aldrich, CAS #128446-35-5) in water was added to the vial (to afford either a 5 mL/kg or 10 mL/kg dose volume, depending on the species). The mixture was basified to a pH of 8.5 to 10 using dropwise addition of 2-5 M aqueous NaOH solution, with pH monitoring. The suspension was stirred, vortexed, and sonicated for 15-20 minutes to afford a homogenous mixture. The second ⅓ of the final volume of 20% kleptose was added to the vial and further stirred, vortexed, and sonicated for 15-20 minutes to afford a homogenous mixture. The pH was monitored and further pH adjustment to pH 8.5 to 10, if necessary, can be applied. The final ⅓ the final volume of 20% kleptose was added to the vial and further stirred, vortexed, and sonicated for 15-20 minutes to afford a homogenous solution. The pH of the solution was adjusted to a pH of 7.5 to 8.0 with dropwise addition of 1.0 M aqueous HCl solution with gentle stirring. The formulation should remain in solution.
Form A crystalline (S)-4-(2,2-difluoro-7-((5-methoxy-7-methyl-1H-indol-4-yl)methyl)-7-azaspiro[3.5]nonan-6-yl)benzoic acid was weighed into a glass vial with a magnetic stir bar to give formulations at dose concentrations of 0.1-1000 mg/kg. The crystalline material should preferably have a particle size with a D50 below 50 μm, and ideally with a D50 below 5 μm. The desired volume of 0.5% methocel (viscosity 400 cP, Aldrich, CAS #9004-67-5)/0.1% tween-80 (Aldrich, CAS #9005-65-6) was added (to afford a 5 mL/kg dose volume). The contents of the vial were stirred at 400-500 rpm on a stir-plate. Gentle vortex or bath sonication can be applied to break down any large clumps. The vial should be mixed well to ensure homogeneity right before animal dosing.

[1] = 30 mg/kg, 30 mg/kg, particle size D50 = 5.1 μm
[2] = 300 mg/kg, 300 mg/kg, particle size D50 = 5.1 μm
[3] = 300 mg/kg, 300 mg/kg, particle size D50 = 101 μm

For COc1cc(C)c2[nH]ccc2c1CN1CCC2(C[C@H]1c1ccc(C(=O)O)cc1)CC(F)(F)C2 [Form A, (S)-4-(2,2-difluoro-7-((5-methoxy-7-methyl-1H-indol-4-yl)methyl)-7-azaspiro[3.5]nonan-6-yl)benzoic acid], the Cmax [1] was 6.1 µM, the AUC(0-t) [1] was 79.2 µM·h and the concentration at 24 h [1] was 1900 nM. For the same compound, the Cmax [2] was 157 µM, the AUC(0-t) [2] was 958 µM·h and the concentration at 24 h [2] was 3300 nM. For the same compound, the Cmax [3] was 80 µM, the AUC(0-t) [3] was 547 µM·h and the concentration at 24 h [3] was 2700 nM. For the same compound, the “Cmax, AUC0-24 and C24h compared with the amorphous form” value (oral dosing, smaller particle size) was “higher”.
